In patent US10294202B2, “Pyrrolidinones as herbicides” (FMC Corporation, priority 2013, dated 2019):

Experiments:
[1] = system: oilseed rape; assay: Test C pre-/postemergence herbicide test; assay type: in vivo, Brassica napus
Outline: (§1)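 Plants grown and held in a greenhouse for 13 to 15 days post-spray, then rated 0–100 by visual comparison with controls. Pre treatments targeted seeds in loam and sand; post treatments targeted 1- to 4-leaf plants in peat-based potting medium.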

[2] = system: oat, wild; assay: Test C pre-/postemergence herbicide test; assay type: in vivo, Avena fatua; details: Postemergence
Outline: as §1

[3] = system: soybean; assay: Test C pre-/postemergence herbicide test; assay type: in vivo, Glycine max
Outline: as §1

[4] = system: barnyardgrass; assay: Test A pre-/postemergence herbicide test; assay type: in vivo, Echinochloa crus-galli
Outline: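 Approximately 10 days after treatment in the greenhouse, plants were compared with untreated controls and given a 0–100 visual injury rating. Applications: preemergence directed soil spray; postemergence on 2–10 cm plants at the one- to two-leaf stage.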

[5] = system: foxtail, giant; assay: Test C pre-/postemergence herbicide test; assay type: in vivo, Setaria faberii
Outline: as §1

[6] = system: blackgrass; assay: Test C pre-/postemergence herbicide test; assay type: in vivo, Alopecurus myosuroides
Outline: as §1

[7] = system: crabgrass, large; assay: Test C pre-/postemergence herbicide test; assay type: in vivo, Digitaria sanguinalis
Outline: as §1

[8] = system: wheat (winter wheat); assay: Test C pre-/postemergence herbicide test; assay type: in vivo, Triticum aestivum; details: for Plant response rating, Wheat: Postemergence
Outline: as §1

[9] = system: pigweed; assay: Test C pre-/postemergence herbicide test; assay type: in vivo, Amaranthus retroflexus
Outline: as §1

[10] = system: velvetleaf; assay: Test C pre-/postemergence herbicide test; assay type: in vivo, Abutilon theophrasti
Outline: as §1

[11] = system: galium; assay: Test C pre-/postemergence herbicide test; assay type: in vivo, Galium aparine; details: Preemergence
Outline: as §1

[12] = system: barnyardgrass; assay: Test C pre-/postemergence herbicide test; assay type: in vivo, Echinochloa crus-galli
Outline: as §1

[13] = Postemergence, 31 g ai/ha, scale 0 to 100 (0 no effect, 100 complete control)
[14] = Postemergence, 62 g ai/ha, scale 0 (no effect) to 100 (complete control)
[15] = Postemergence, 125 g ai/ha, scale 0 to 100 (0 no effect, 100 complete control)
[16] = Postemergence, 250 g ai/ha, scale 0 to 100 (0 no effect, 100 complete control)
[17] = Preemergence, 31 g ai/ha, scale 0 to 100, 0 is no effect and 100 is complete control
[18] = Preemergence, 62 g ai/ha, scale 0 to 100 (0 no effect, 100 complete control)
[19] = Preemergence, 125 g ai/ha, scale 0 to 100 (0 no effect, 100 complete control)
[20] = 31 g ai/ha, scale 0 to 100 (0 no effect, 100 complete control)
[21] = 62 g ai/ha, scale 0 (no effect) to 100 (complete control)
[22] = 125 g ai/ha, scale 0 to 100 (0 no effect, 100 complete control)
[23] = 250 g ai/ha, scale 0 to 100 (0 no effect, 100 complete control)

**Q.** With CN1CC(c2ccc(C(F)(F)F)cc2)C(C(=O)Nc2cccc(F)c2F)C1=O (centres unmarked) [Compound 306] as the compound, how does the “Plant response rating, Oilseed Rape” value [1, 13] read?
**A.** 0

**Q.** And the “Plant response rating, Oilseed Rape” value [1, 14]?
**A.** 50

**Q.** And the “Plant response rating, Oilseed Rape” value [1, 15]?
**A.** 40

**Q.** What about the “Plant response rating, Oilseed Rape” value [1, 16] of the same compound?
**A.** 70

**Q.** And the “Oilseed Rape plant response rating” value [1, 17]?
**A.** 50

**Q.** And the “Oilseed Rape plant response rating” value [1, 18]?
**A.** 70

**Q.** And the “Plant response rating, Oilseed Rape” value [1, 19]?
**A.** 75

**Q.** And the “Plant response rating (scale of 0 to 100), Oilseed Rape” value ([1]; Preemergence, 250 g ai/ha)?
**A.** 75

**Q.** And the “Plant response rating, Oat, Wild” value [2, 20]?
**A.** 0

**Q.** And the “Plant response rating, Oat, Wild” value [2, 21]?
**A.** 0

**Q.** And the “Plant response rating, Oat, Wild” value [2, 22]?
**A.** 0

**Q.** What about the “Plant response rating, Oat, Wild” value [2, 23] of the same compound?
**A.** 5

**Q.** What about the “Plant response rating, Soybean” value [3, 13] of the same compound?
**A.** 0

**Q.** What about the “Plant response rating, Soybean” value [3, 14] of the same compound?
**A.** 5

**Q.** What about the “Plant response rating, Soybean” value [3, 15] of the same compound?
**A.** 5

**Q.** And the “Plant response rating, Soybean” value [3, 16]?
**A.** 5

**Q.** What about the “Soybean plant response rating” value [3, 18] of the same compound?
**A.** 0

**Q.** And the “Plant response rating, Soybean” value [3, 19]?
**A.** 0

**Q.** And the “Plant response rating (scale of 0 to 100), Soybean” value ([3]; Preemergence, 250 g ai/ha)?
**A.** 0

**Q.** And the “Plant response rating, Barnyardgrass” value ([4]; Postemergence, 125 g ai/ha, visual rating on 0 to 100 scale (0 no effect, 100 complete control), approx. 10 days)?
**A.** 80

**Q.** And the “Plant response rating, Barnyardgrass” value ([4]; Postemergence, 500 g ai/ha, 0 to 100 scale (0 no effect, 100 complete control))?
**A.** 80

**Q.** And the “Plant response rating, Barnyardgrass” value ([4]; Preemergence, 125 g ai/ha, 0 to 100 scale where 0 is no effect and 100 is complete control)?
**A.** 90

**Q.** And the “Barnyardgrass plant response rating” value ([4]; Preemergence, 500 g ai/ha, visual rating on 0 to 100 scale (0 no effect, 100 complete control))?
**A.** 90

**Q.** What about the “Plant response rating, Foxtail, Giant” value [5, 13] of the same compound?
**A.** 5

**Q.** And the “Plant response rating, Foxtail, Giant” value [5, 14]?
**A.** 75

**Q.** And the “Plant response rating, Foxtail, Giant” value [5, 15]?
**A.** 60

**Q.** And the “Plant response rating, Foxtail, Giant” value [5, 16]?
**A.** 85

**Q.** What about the “Foxtail, Giant plant response rating” value [5, 17] of the same compound?
**A.** 90

**Q.** What about the “Foxtail, Giant plant response rating” value [5, 18] of the same compound?
**A.** 95

**Q.** And the “Plant response rating, Foxtail, Giant” value [5, 19]?
**A.** 95

**Q.** What about the “Plant response rating (scale of 0 to 100), Foxtail, Giant” value ([5]; Preemergence, 250 g ai/ha) of the same compound?
**A.** 100

**Q.** And the “Plant response rating, Blackgrass” value [6, 13]?
**A.** 0

**Q.** What about the “Plant response rating, Blackgrass” value [6, 14] of the same compound?
**A.** 0

**Q.** What about the “Plant response rating, Blackgrass” value [6, 15] of the same compound?
**A.** 5

**Q.** And the “Plant response rating, Blackgrass” value [6, 16]?
**A.** 5

**Q.** What about the “Blackgrass plant response rating” value [6, 17] of the same compound?
**A.** 0

**Q.** And the “Blackgrass plant response rating” value [6, 18]?
**A.** 30

**Q.** And the “Plant response rating, Blackgrass” value [6, 19]?
**A.** 60

**Q.** What about the “Plant response rating (scale of 0 to 100), Blackgrass” value ([6]; Preemergence, 250 g ai/ha) of the same compound?
**A.** 90

**Q.** What about the “Plant response rating, Crabgrass, Large” value [7, 13] of the same compound?
**A.** 10

**Q.** What about the “Plant response rating, Crabgrass, Large” value [7, 14] of the same compound?
**A.** 45

**Q.** What about the “Plant response rating, Crabgrass, Large” value [7, 15] of the same compound?
**A.** 75

**Q.** And the “Plant response rating, Crabgrass, Large” value [7, 16]?
**A.** 85

**Q.** What about the “Crabgrass, Large plant response rating” value [7, 17] of the same compound?
**A.** 90

**Q.** What about the “Crabgrass, Large plant response rating” value [7, 18] of the same compound?
**A.** 95

**Q.** And the “Plant response rating, Crabgrass, Large” value [7, 19]?
**A.** 95

**Q.** What about the “Plant response rating (scale of 0 to 100), Crabgrass, Large” value ([7]; Preemergence, 250 g ai/ha) of the same compound?
**A.** 98

**Q.** What about the “Plant response rating, Wheat” value [8, 20] of the same compound?
**A.** 0

**Q.** What about the “Plant response rating, Wheat” value [8, 21] of the same compound?
**A.** 0

**Q.** And the “Plant response rating, Wheat” value [8, 22]?
**A.** 0

**Q.** And the “Plant response rating, Wheat” value [8, 23]?
**A.** 0

**Q.** What about the “Wheat plant response rating” value [8, 18] of the same compound?
**A.** 50

**Q.** And the “Plant response rating (scale of 0 to 100), Wheat” value ([8]; Preemergence, 250 g ai/ha)?
**A.** 85

**Q.** And the “Plant response rating, Pigweed” value [9, 13]?
**A.** 75

**Q.** What about the “Plant response rating, Pigweed” value [9, 14] of the same compound?
**A.** 85

**Q.** And the “Plant response rating, Pigweed” value [9, 15]?
**A.** 85

**Q.** And the “Plant response rating, Pigweed” value [9, 16]?
**A.** 90

**Q.** What about the “Pigweed plant response rating” value [9, 17] of the same compound?
**A.** 80

**Q.** What about the “Pigweed plant response rating” value [9, 18] of the same compound?
**A.** 85

**Q.** And the “Plant response rating, Pigweed” value [9, 19]?
**A.** 85

**Q.** And the “Plant response rating (scale of 0 to 100), Pigweed” value ([9]; Preemergence, 250 g ai/ha)?
**A.** 90

**Q.** What about the “Plant response rating, Velvetleaf” value [10, 13] of the same compound?
**A.** 0

**Q.** And the “Plant response rating, Velvetleaf” value [10, 14]?
**A.** 10

**Q.** And the “Plant response rating, Velvetleaf” value [10, 15]?
**A.** 50

**Q.** And the “Plant response rating, Velvetleaf” value [10, 16]?
**A.** 65

**Q.** And the “Velvetleaf plant response rating” value [10, 18]?
**A.** 60

**Q.** What about the “Plant response rating, Velvetleaf” value [10, 19] of the same compound?
**A.** 60

**Q.** What about the “Plant response rating (scale of 0 to 100), Velvetleaf” value ([10]; Preemergence, 250 g ai/ha) of the same compound?
**A.** 65

**Q.** And the “Galium plant response rating” value ([11]; 31 g ai/ha, scale 0 to 100, 0 is no effect and 100 is complete control)?
**A.** 90

**Q.** What about the “Galium plant response rating” value ([11]; 62 g ai/ha, scale 0 to 100 (0 no effect, 100 complete control)) of the same compound?
**A.** 60

**Q.** And the “Plant response rating, Galium” value [11, 22]?
**A.** 90

**Q.** What about the “Plant response rating (scale of 0 to 100), Galium” value ([11]; 250 g ai/ha) of the same compound?
**A.** 90

**Q.** What about the “Plant response rating, Barnyardgrass” value [12, 13] of the same compound?
**A.** 0

**Q.** What about the “Plant response rating, Barnyardgrass” value [12, 14] of the same compound?
**A.** 45

**Q.** What about the “Plant response rating, Barnyardgrass” value [12, 15] of the same compound?
**A.** 85

**Q.** And the “Plant response rating, Barnyardgrass” value [12, 16]?
**A.** 85

**Q.** What about the “Barnyardgrass plant response rating” value [12, 17] of the same compound?
**A.** 90

**Q.** And the “Barnyardgrass plant response rating” value [12, 18]?
**A.** 90

**Q.** What about the “Plant response rating, Barnyardgrass” value [12, 19] of the same compound?
**A.** 90

**Q.** What about the “Plant response rating (scale of 0 to 100; 0 is no effect, 100 is complete control), Barnyardgrass” value ([12]; Preemergence, 250 g ai/ha) of the same compound?
**A.** 95
